Assay results taken from patent US20160083391A1, “TRICYCLIC PIPERAZINE DERIVATIVE” (Sunovion Pharmaceuticals Inc., priority 2014, published 2016).

Tested on: PDE1
Test: In vitro HTRF PDE1 inhibition assay
Assay type: biochemical
Conditions: HTRF cGMP assay, 100 nM cyclic GMP, PDE (1A3, 1B or 1C) with calmodulin, 45 minutes at 37° C.; isoform of the tabulated values not stated
In short: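 HTRF cGMP competition assay: PDE1A3, 1B or 1C with calmodulin acting on 100 nM cGMP in 1% DMSO, pH 7.4 buffer with Ca2+ and Mg2+, 45 min at 37 °C. Remaining cGMP detected with d2-cGMP and anti-cGMP cryptate (665/615 nm); IC50 reported as banded categories.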

IC50 [nM] | SMILES
< 1000 | CC(C)n1ncc2c(=O)n3c(nc21)CN(c1ccc(Cl)cn1)CC3 [Compound I-241, 8-(5-Chloropyridin-2-yl)-1-isopropyl-6,7,8,9-tetrahydropyrazino[1,2-a]pyrazolo[3,4-d]pyrimidin-4(1H)-one]
< 1000 | CC(C)c1ncc2c(=O)n3c(nn12)CN(c1ccc(Cl)cn1)CC3 [Compound I-242, 7-(5-Chloropyridin-2-yl)-3-isopropyl-8,9-dihydro-6H-imidazo[5,1-f]pyrazino[2,1-c][1,2,4]triazin-11(7H)-one]
1000 to 10000 | O=c1c2cnn(C3CCCC3)c2nc2n1CCN(CCc1ccc(Cl)cc1)C2 [Compound I-243, 8-(4-Chlorophenethyl)-1-cyclopentyl-6,7,8,9-tetrahydropyrazino[1,2-a]pyrazolo[3,4-d]pyrimidin-4(1H)-one]
1000 to 10000 | COc1ccc(CCN2CCn3c(nn4c(C5CCCC5)ncc4c3=O)C2)cc1 [Compound I-244, 3-Cyclopentyl-7-(4-methoxyphenethyl)-8,9-dihydro-6H-imidazo[5,1-f]pyrazino[2,1-c][1,2,4]triazin-11(7H)-one]
> 10000 | CC(C)c1nnc2c(=O)n3c(nn12)CN(Cc1ccncc1)CC3 [Compound I-245, 3-Isopropyl-7-(pyridin-4-ylmethyl)-8,9-dihydro-6H-pyrazino[2,1-c][1,2,4]triazolo[3,4-f][1,2,4]triazin-11(7H)-one]
1000 to 10000 | O=c1c2cnn(C3CCC3)c2nc2n1CCN(c1ccc(Cl)cc1)C2 [Compound I-246, 8-(4-Chlorophenyl)-1-cyclobutyl-6,7,8,9-tetrahydropyrazino[1,2-a]pyrazolo[3,4-d]pyrimidin-4(1H)-one]
1000 to 10000 | CC(C)(C)n1ncc2c(=O)n3c(nc21)CN(c1ccc(Cl)cc1)CC3 [Compound I-247, 1-(tert-Butyl)-8-(4-chlorophenyl)-6,7,8,9-tetrahydropyrazino[1,2-a]pyrazolo[3,4-d]pyrimidin-4(1H)-one]
< 1000 | O=c1c2cnn(C3CC3)c2nc2n1CCN(c1ccc(Cl)cc1)C2 [Compound I-248, 8-(4-Chlorophenyl)-1-cyclopropyl-6,7,8,9-tetrahydropyrazino[1,2-a]pyrazolo[3,4-d]pyrimidin-4(1H)-one]
< 1000 | O=c1c2cnc(C3CCC3)n2nc2n1CCN(c1ccc(Cl)cc1)C2 [Compound I-249, 7-(4-Chlorophenyl)-3-cyclobutyl-8,9-dihydro-6H-imidazo[5,1-f]pyrazino[2,1-c][1,2,4]triazin-11(7H)-one]
1000 to 10000 | CC(C)(C)c1ncc2c(=O)n3c(nn12)CN(c1ccc(Cl)cc1)CC3 [Compound I-250, 3-(tert-Butyl)-7-(4-chlorophenyl)-8,9-dihydro-6H-imidazo[5,1-f]pyrazino[2,1-c][1,2,4]triazin-11(7H)-one]
< 1000 | O=c1c2cnc(C3CC3)n2nc2n1CCN(c1ccc(Cl)cc1)C2 [Compound I-251, 7-(4-Chlorophenyl)-3-cyclopropyl-8,9-dihydro-6H-imidazo[5,1-f]pyrazino[2,1-c][1,2,4]triazin-11(7H)-one]
1000 to 10000 | O=c1c2cnc(C3CCNCC3)n2nc2n1CCN(c1ccc(Cl)cc1)C2 [Compound I-252, 7-(4-Chlorophenyl)-3-(piperidin-4-yl)-8,9-dihydro-6H-imidazo[5,1-f]pyrazino[2,1-c][1,2,4]triazin-11(7H)-one]
1000 to 10000 | CCCn1ncc2c(=O)n3c(nc21)CN(Cc1ccc(Cl)cc1)CC3 [Compound I-253, 8-(4-Chlorobenzyl)-1-propyl-6,7,8,9-tetrahydropyrazino[1,2-a]pyrazolo[3,4-d]pyrimidin-4(1H)-one]
1000 to 10000 | CCCn1ncc2c(=O)n3c(nc21)CN(Cc1cccc(OC)c1)CC3 [Compound I-254, 8-(3-Methoxybenzyl)-1-propyl-6,7,8,9-tetrahydropyrazino[1,2-a]pyrazolo[3,4-d]pyrimidin-4(1H)-one]
1000 to 10000 | CCCn1ncc2c(=O)n3c(nc21)CN(Cc1ccc2c(c1)OCO2)CC3 [Compound I-255, 8-(Benzo[d][1,3]dioxol-5-ylmethyl)-1-propyl-6,7,8,9-tetrahydropyrazino[1,2-a]pyrazolo[3,4-d]pyrimidin-4(1H)-one]
1000 to 10000 | COCCn1ncc2c(=O)n3c(nc21)CN(c1ccc(Cl)cc1)CC3 [Compound I-256, 8-(4-Chlorophenyl)-1-(2-methoxyethyl)-6,7,8,9-tetrahydropyrazino[1,2-a]pyrazolo[3,4-d]pyrimidin-4(1H)-one]
1000 to 10000 | COCCn1ncc2c(=O)n3c(nc21)CN(c1ccc(Cl)c(Cl)c1)CC3 [Compound I-257, 8-(3,4-Dichlorophenyl)-1-(2-methoxyethyl)-6,7,8,9-tetrahydropyrazino[1,2-a]pyrazolo[3,4-d]pyrimidin-4(1H)-one]
< 1000 | O=c1n2c(nc3c(C4CCCC4)ncn13)CN(Cc1ccc(Cl)cc1)CC2 [Compound I-258, 6-(4-Chlorobenzyl)-3-cyclopentyl-7,8-dihydro-5H-imidazo[1,5-a]pyrazino[2,1-d][1,3,5]triazin-10(6H)-one]
